# Activity calls are given as the source filed them.
# How the values were obtained:
# [1] = biological target: T1, Beta-2 adrenergic receptor (Homo sapiens, UniProt P07550); assay: Dose response for HTS for Beta-2AR agonists via FAP method from Powderset3.; format: functional
# [2] = biological target: T1, Beta-2 adrenergic receptor; assay: beta2AR agonists driving receptor internalization, dose response, cell-based, FAP fluorogen, flow cytometry, cherry pick 1 (AID 588763); format: functional
# [3] = biological target: Fructose-bisphosphate aldolase (Mycobacterium tuberculosis, UniProt P9WQA3); assay: Fluorescence-based biochemical high throughput dose response assay for inhibitors of the fructose-bisphosphate aldolase (FBA) of M. tuberculosis.; format: functional
# [4] = Counterscreen for AddAB inhibitors: absorbance-based bacterial cell-based high throughput dose response assay for inhibitors of bacterial viability. [Related pubchem assays (depositor defined):AID435030, AID449728, AID449731, AID488942, AID488955, AID488956]; format: functional
# [5] = biological target: Albumin (Bos taurus, UniProt P02769); assay: Counterscreen for inhibitors of T-cell receptor (TCR)-CD3 interaction: Fluorescence-based biochemical high throughput dose response assay to identify inhibitors of T-cell receptor (TCR)-CD3 interaction using a TAMRA-labeled BSA probe.; format: functional
# [6] = biological target: T2, Exodeoxyribonuclease V (Escherichia coli (strain K12), UniProt P04993+P07648+P08394); assay: E. coli RecBCD inhibitors, dose response, counter-screen for AddAB inhibitor project, absorbance, V66 E. coli, mutant T4 phage (AID 492957); format: functional, cell-based, Escherichia coli str. K-12 substr. MG1655
# T2 sequence (P04993 whole entry): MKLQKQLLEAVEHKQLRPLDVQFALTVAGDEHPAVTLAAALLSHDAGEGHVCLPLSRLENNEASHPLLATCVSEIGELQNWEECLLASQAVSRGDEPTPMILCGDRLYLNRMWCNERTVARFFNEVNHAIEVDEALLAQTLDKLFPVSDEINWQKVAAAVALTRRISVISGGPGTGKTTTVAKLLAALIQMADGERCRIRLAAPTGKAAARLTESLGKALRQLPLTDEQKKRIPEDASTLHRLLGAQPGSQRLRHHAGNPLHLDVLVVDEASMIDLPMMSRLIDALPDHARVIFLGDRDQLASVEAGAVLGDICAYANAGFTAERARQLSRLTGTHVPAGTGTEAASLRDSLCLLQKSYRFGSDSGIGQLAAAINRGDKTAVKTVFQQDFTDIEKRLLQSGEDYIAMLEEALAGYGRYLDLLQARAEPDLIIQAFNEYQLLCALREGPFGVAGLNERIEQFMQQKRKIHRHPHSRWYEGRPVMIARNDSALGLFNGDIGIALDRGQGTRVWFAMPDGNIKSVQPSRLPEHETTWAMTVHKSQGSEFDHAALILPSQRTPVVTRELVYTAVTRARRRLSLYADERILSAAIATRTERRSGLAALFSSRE
# T2 sequence (P07648 whole entry): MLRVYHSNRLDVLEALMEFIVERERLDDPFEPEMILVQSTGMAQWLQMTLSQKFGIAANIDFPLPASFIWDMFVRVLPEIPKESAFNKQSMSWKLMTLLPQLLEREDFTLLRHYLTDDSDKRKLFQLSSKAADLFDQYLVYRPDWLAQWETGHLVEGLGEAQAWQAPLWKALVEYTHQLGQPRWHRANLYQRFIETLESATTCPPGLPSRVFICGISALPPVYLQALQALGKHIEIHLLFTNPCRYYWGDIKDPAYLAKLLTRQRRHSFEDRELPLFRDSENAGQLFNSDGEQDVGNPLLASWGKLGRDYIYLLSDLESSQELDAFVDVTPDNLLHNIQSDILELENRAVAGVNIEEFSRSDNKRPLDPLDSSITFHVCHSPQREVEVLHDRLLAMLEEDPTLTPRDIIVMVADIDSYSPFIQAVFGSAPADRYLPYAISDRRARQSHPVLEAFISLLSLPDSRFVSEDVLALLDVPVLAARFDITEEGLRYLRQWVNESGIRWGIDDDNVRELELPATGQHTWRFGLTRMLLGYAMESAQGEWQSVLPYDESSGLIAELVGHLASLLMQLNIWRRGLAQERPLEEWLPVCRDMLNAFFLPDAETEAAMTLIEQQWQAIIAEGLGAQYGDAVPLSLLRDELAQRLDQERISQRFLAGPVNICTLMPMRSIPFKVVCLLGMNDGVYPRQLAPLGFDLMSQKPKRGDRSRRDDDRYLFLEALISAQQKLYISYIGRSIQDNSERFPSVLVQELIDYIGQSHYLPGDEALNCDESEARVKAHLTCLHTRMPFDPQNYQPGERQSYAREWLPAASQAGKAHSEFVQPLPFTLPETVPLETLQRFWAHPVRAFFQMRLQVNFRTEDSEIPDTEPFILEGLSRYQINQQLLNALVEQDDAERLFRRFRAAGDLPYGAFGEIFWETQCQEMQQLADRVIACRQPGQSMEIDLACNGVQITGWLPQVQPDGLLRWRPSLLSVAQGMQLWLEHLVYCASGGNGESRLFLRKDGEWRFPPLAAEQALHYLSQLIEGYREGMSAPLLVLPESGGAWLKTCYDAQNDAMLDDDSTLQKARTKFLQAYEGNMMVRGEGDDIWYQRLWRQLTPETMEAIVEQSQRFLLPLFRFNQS
# T2 sequence (P08394 whole entry): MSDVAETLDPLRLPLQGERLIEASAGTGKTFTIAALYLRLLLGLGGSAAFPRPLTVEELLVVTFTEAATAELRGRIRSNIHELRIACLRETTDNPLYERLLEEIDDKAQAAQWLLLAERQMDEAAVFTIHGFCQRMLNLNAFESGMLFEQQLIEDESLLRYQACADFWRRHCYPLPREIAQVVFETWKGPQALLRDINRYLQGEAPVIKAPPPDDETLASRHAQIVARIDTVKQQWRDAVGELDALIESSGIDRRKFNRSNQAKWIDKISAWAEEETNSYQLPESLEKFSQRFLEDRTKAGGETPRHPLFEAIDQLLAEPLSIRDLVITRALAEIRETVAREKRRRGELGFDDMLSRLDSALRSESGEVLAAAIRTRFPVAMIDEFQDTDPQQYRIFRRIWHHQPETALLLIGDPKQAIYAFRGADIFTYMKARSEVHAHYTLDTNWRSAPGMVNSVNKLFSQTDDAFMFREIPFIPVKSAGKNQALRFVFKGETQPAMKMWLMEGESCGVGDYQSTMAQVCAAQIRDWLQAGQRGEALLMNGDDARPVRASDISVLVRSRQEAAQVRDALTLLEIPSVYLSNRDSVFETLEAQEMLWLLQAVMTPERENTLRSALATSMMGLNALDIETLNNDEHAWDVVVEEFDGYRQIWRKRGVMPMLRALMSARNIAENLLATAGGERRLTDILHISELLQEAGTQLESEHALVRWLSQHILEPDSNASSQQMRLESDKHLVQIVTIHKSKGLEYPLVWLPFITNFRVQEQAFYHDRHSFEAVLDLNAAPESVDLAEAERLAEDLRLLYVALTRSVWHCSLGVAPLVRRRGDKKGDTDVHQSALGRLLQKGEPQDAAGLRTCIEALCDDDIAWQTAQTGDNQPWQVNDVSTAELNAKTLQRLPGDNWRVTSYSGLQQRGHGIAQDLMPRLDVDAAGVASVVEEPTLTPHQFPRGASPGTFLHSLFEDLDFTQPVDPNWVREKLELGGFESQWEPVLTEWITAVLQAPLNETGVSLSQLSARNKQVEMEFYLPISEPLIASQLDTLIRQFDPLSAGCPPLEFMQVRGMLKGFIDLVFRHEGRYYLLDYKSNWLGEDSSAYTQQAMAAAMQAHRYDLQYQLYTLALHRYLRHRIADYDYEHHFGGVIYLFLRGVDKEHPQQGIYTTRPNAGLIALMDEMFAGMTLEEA
# [7] = biological target: T3, Probable nicotinate-nucleotide adenylyltransferase (Staphylococcus aureus (strain N315), UniProt P65502); format: functional, Staphylococcus aureus subsp. aureus N315; conditions: read-out: IC50_Mean;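 on IC50 Mean: confirmatory dose-response retesting of NadD inhibitor hits first found in an ultra-high-throughput screen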
# [8] = system: Streptococcus; assay: Group A Streptococcus viability loss, dose response, counter-screen for streptokinase expression inhibitor project, luminescence, BacTiterGlo (AID 1915); format: functional, organism-based;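 further: potency for reduction of bacterial viability or growth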
# [9] = system: Streptococcus sp. 'group A'; assay: growth inhibition of control SK(-) GAS strain, dose response, counter-screen for streptokinase expression inhibitor project, luminescence, kanamycin, BacTiterGlo, confirmation (AID 1900); format: functional, organism-based
# [10] = biological target: T3, Probable nicotinate-nucleotide adenylyltransferase; format: functional, Staphylococcus aureus subsp. aureus N315
# [11] = biological target: T4, Streptokinase A (Streptococcus pyogenes serotype M1, UniProt P10520); assay: S. pyogenes streptokinase expression inhibitors, potency, dose response, plasminogen activation absorbance, OD405 (AID 1914); format: functional, Streptococcus pyogenes M1 GAS;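 further: secreted streptokinase activity via plasminogen activation per viability signal from cell pellet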
# T4 sequence (P10520 whole entry): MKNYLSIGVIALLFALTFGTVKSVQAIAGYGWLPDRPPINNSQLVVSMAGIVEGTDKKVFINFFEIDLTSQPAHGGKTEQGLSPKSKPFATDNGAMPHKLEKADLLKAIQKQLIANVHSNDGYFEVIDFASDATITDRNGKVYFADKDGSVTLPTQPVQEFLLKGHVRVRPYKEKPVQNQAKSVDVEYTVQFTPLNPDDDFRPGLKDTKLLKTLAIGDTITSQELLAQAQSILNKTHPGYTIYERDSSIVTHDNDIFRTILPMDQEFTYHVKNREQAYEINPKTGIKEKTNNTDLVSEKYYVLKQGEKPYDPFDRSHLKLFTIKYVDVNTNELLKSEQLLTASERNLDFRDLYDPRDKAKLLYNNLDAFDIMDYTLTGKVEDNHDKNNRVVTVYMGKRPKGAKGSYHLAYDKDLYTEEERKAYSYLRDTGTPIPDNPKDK
# [12] = biological target: Protein Wnt-3a (Mus musculus, UniProt P27467); assay: SAR analysis of small molecule antagonists of Gli-SUFU in a Wnt3a luminescent reporter assay.; format: functional
# [13] = biological target: T5, Rac GTPase-activating protein 1 (Homo sapiens, UniProt Q9H0H5); assay: MgcRacGAP GTPase-activating activity inhibitors, confirmation, biochemical, ADP Hunter fluorescence, primary and confirmatory (AID 624330); format: functional
# T5 sequence (Q9H0H5 whole entry): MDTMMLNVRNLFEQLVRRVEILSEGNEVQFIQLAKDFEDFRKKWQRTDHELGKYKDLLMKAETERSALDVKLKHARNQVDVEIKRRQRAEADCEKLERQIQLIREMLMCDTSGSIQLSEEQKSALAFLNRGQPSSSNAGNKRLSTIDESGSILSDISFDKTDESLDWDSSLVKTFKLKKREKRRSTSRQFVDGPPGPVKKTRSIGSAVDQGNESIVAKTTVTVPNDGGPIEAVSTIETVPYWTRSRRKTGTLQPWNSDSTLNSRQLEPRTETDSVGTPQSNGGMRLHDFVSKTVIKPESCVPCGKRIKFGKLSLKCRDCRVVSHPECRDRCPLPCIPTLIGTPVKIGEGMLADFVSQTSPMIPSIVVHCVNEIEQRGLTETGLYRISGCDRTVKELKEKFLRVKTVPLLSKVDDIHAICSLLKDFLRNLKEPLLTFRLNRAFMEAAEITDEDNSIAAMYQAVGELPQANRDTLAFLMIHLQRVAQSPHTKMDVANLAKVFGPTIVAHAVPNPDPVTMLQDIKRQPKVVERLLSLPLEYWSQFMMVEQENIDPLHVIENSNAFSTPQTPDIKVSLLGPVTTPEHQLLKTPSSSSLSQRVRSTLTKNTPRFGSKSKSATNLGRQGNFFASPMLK
# [14] = biological target: Nonstructural protein 1 (Influenza A virus, UniProt Q194T2); format: functional, Influenza A virus (A/California/07/2009(H1N1))
# [15] = HeLa cell cytotoxicity, dose response, cytotoxicity control for MgcRacGAP inhibitor project (AID 624300); format: functional
# [16] = system: HeLa; assay: HeLa cell cytotoxicity, dose response, cytotoxicity control, ATP luminescence, cherry-pick samples (AID 687004); format: functional, cell-based; conditions: Homo sapiens
# [17] = HepG2 cell cytotoxicity, dose response, cytotoxicity control, cherry-picks, set 5 (AID 1053118); format: functional, cell-based
# [18] = biological target: Protein S100-A4 (Homo sapiens, UniProt P26447); assay: S100A4-myosin IIA binding inhibitor potency, dose response, biochemical, fluorescence polarization, cherry-picked hits (AID 687001); format: functional
# [19] = HEK293 cell viability, dose response, counter-screen for EBV LMP1 inhibitor project, dry powder, set 2 (AID 624374); format: functional
# [20] = inhibitors of TNFa-stimulated NF-kB luciferase reporter, dose response, selectivity assay for EBV LMP1 NF-kB inhibitor project, HEK293 LMP1 reporter cells, dry powder, set 2 (AID 624369); format: functional
# T3 sequence (P65502 whole entry): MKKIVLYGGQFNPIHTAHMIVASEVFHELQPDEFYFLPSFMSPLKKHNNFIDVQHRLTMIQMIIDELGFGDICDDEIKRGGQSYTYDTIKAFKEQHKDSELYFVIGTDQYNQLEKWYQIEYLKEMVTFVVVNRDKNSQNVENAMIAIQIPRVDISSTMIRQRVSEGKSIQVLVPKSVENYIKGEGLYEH
# T1 sequence (P07550 whole entry): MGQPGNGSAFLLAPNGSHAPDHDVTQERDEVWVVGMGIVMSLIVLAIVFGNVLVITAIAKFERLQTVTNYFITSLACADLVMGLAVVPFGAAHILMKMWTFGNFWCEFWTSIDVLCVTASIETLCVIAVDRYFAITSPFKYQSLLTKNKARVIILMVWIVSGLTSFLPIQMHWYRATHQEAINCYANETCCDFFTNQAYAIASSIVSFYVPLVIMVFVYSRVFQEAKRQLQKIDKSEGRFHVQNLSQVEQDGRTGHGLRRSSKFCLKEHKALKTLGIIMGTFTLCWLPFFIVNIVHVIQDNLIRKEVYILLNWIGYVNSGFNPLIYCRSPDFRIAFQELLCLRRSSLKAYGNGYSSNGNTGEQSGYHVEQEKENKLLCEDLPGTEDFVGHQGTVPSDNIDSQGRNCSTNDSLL
# Protein S100-A4, sequence (P26447 whole entry): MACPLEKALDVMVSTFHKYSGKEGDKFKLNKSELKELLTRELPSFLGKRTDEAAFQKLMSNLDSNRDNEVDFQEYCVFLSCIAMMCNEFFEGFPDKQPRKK
# Protein Wnt-3a, sequence (P27467 whole entry): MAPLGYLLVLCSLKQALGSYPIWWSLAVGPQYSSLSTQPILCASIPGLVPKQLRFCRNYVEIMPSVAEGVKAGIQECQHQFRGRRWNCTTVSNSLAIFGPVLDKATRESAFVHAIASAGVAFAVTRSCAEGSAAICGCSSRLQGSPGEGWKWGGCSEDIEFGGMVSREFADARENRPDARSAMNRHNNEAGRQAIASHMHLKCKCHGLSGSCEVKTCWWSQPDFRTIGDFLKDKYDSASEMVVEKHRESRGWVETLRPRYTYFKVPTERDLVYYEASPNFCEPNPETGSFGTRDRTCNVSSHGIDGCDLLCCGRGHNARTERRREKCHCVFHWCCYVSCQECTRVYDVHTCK
# Nonstructural protein 1, sequence (Q194T2 whole entry): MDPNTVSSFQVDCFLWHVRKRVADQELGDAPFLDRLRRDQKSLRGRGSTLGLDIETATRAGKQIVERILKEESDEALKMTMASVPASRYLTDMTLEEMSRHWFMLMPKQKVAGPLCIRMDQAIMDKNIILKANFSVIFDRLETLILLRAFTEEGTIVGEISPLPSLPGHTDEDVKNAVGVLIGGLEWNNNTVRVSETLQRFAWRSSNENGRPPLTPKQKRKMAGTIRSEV
# Albumin, sequence (P02769 whole entry): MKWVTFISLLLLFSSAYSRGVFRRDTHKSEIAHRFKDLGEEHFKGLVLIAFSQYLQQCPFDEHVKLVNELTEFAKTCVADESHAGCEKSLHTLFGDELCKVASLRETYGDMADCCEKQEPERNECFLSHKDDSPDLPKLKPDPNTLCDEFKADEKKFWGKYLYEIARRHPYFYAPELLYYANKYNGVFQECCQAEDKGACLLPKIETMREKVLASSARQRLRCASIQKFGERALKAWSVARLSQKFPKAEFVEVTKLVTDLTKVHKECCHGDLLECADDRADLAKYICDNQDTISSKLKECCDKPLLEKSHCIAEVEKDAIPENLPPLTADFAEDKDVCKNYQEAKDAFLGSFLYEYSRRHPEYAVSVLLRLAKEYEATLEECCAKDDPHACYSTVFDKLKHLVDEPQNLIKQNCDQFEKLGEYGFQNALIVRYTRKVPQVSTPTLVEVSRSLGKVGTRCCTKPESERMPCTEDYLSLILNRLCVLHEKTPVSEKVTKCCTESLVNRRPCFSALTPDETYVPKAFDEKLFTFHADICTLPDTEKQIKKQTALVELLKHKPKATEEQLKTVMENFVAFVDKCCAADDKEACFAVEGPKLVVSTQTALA
# Fructose-bisphosphate aldolase, sequence (P9WQA3 whole entry): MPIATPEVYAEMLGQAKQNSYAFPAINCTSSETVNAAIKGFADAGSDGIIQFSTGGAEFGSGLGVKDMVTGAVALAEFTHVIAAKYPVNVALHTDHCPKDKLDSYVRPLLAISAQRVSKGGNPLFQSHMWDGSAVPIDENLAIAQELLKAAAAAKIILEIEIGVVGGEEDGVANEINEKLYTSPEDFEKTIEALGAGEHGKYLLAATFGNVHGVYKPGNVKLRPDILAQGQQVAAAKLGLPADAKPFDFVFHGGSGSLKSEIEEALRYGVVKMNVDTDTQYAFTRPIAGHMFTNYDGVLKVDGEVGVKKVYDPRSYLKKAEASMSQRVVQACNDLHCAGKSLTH
smiles,measurement,setting,value
Cc1ccc(OCc2cc(C(=O)N(C)Cc3cnn(-c4ccccc4C)c3)no2)cn1,EC50,[1],0.0555 µM (active)
same,EC50,[2],0.305 µM (active)
COc1ccc2nc(NCCCNC(=O)c3cc(OC)c(OC)c(OC)c3)c(C#N)cc2c1,IC50,[3],1.78 µM (active)
O=C(NNC(=O)C1CCN(S(=O)(=O)c2ccccc2C(F)(F)F)CC1)c1ccccc1O,IC50,[4],> 119 µM (inactive)
same,IC50,[5],> 94.1 µM (inactive)
same,IC50,[6],> 119 µM (inactive)
Cc1c(C(=O)NNC(=O)c2ccccc2O)oc2ccc(Br)cc12,IC50,[7],45.8 µM (active)
same,EC50,[8],8.5 µM (active)
same,IC50,[4],> 119 µM (inactive)
same,IC50,[6],> 119 µM (inactive)
same,EC50,[9],8.43 µM (active)
same,IC50,[10],15.3 µM (active)
same,EC50,[11],> 150 µM (not active)
O=C(Nc1cc(N2CCCCC2)ncn1)c1ccco1,IC50,[12],> 21.8 µM (inactive)
CN(C)c1ccc(C=c2c3ccccc3n3c2cc(-c2ccc(Cl)cc2)[n+]3C)cc1,IC50,[13],44.9 µM (active)
same,IC50,[14],5.85 µM (active)
same,CC50,[15],18.9 µM (active)
COc1cccc(S(=O)(=O)N2C[C@@H](O)COC[C@H]3O[C@H](CC(=O)Nc4ccccc4)CC[C@@H]32)c1,AC50,[16],> 52 µM (inactive)
CO[C@H]1CN(C)C(=O)c2ccc(NC(=O)Nc3ccc(Cl)c(Cl)c3)cc2OC[C@H](C)NC[C@H]1C,AC50,[17],13.5 µM (active)
CSCc1cc(C(=O)NC2CC2)c(N)s1,AC50,[18],17.5 µM (active)
COc1cccc(C#Cc2ccc([C@@H]3[C@@H](C#N)N(C(=O)c4ccccn4)[C@@H]3CO)cc2)c1,AbsAC35,[19],328.8 µM
same,AbsAC35,[20],84.96 µM

# From ChEMBL document CHEMBL1201862, “PubChem BioAssay data set” (2004)
